Measurements from patent US11591284B2, “Compounds for the treatment of neuromuscular disorders” (NMD Pharma A/S, priority 2017, dated 2023).
Where two headings read alike, the source gives them in different places.

What was measured:
[1] = system: isolated rat soleus muscles; test: Recovery of nerve-stimulated force in isolated rat soleus muscles exposed to sub-maximal tubocurarine; details: for 500 μM % change after addition: 500 μM compound
Protocol: FIGS. 3A-3B. […] The motor nerve was stimulated every 10 min for 2 s with 30 Hz with field stimulation using short duration pulses. […] Traces are shown before addition tubocurarine, after 40 min with tubocurarine, and after 110 min tubocurarine. […] This recovery of force was used in Table 1.
(§1) In all contraction experiments, isometric force production was determined and force produced during contractions was quantified by measuring the integral of the force response (AUC). Stimulation and force recordings have been described elsewhere. […] In these latter experiments, extracellular recordings of action potentials (M-waves) could be measured without temporal overlap with stimulation artefacts.
(§2) To initially confirm that inhibition of CIC-1 ion channels can be used to recover contractile force in muscle with reduced neuromuscular transmission, isolated nerve-muscle preparations were first exposed to either tubocurarine (FIG. 2A) or elevated Mg^2+ (FIG. 2B) and then a specific CIC-1 inhibitor (9-AC) was added.
To identify CIC-1 inhibitors that could be used for treatment of neuromuscular disorders we repeated the experiment shown in FIG. 2A but instead of adding 9-AC we added the compounds of interest in different concentrations within the range from 10 to 500 μM. […] For comparison with the muscle only exposed to tubocurarine (grey trace), the two traces have been overlaid. […] For comparison, muscles only exposed to tubocurarine have been included. The dotted line indicates the recovery of force with C8 when compared to the force production before its addition. This value was used in Table 1 for evaluation of the efficacy of the different compounds in recovering force.

[2] = system: isolated rat soleus muscles; test: Recovery of nerve-stimulated force in isolated rat soleus muscles exposed to 3.5 mM Mg2+
Protocol: as §1
The aim was to find compounds that by inhibition of CIC-1 channels can recover nerve-stimulated force under conditions of fatigue including conditions where fatigue is caused by compromised neuromuscular transmission. Neuromuscular transmission dysfunction can develop because of both pre- and/or post-synaptic complications in connection with a disorder or as part of neuromuscular blockade during/after surgery. In the initial series of drug testing, experiments were performed with isolated muscles in the presence of sub-maximal ACh receptor antagonist tubocurarine. Since the inclusion of tubocurarine caused a partial loss of neuromuscular transmission this experiment mimics the conditions in myasthenia gravis and neuromuscular blockade. To mimic conditions with pre-synaptic complication (Lambert Eaton syndrome, motor neuron disorder, polyneuropathy) the intact nerve-muscle preparations were incubated at elevated extracellular Mg^2+, which is known to suppress release of ACh from nerve terminals of motor neurons.
as §2
The next series of experiments determined whether the compounds that recovered nerve-stimulated force in the presence of tubocurarine could also recover nerve-stimulated force at elevated extracellular Mg^2+.

[3] = system: isolated rat soleus muscles; test: Recovery of nerve-stimulated force in isolated rat soleus muscles with ACh receptors inhibited by 2 μM rocuronium; details: 50 μM compound added after 2 μM rocuronium had reduced force to 51±5%; 8 muscles; p<0.01
Protocol: In a separate series of experiments with 8 isolated rat soleus muscles, ACh receptors were inhibited using 2 μM rocuronium, which is a clinically used neuromuscular blocking agent. Under these conditions the nerve-stimulated force was reduced to 51±5% of force before rocuronium. […] This illustrates the potential of these compounds to be used as reversal agents.

soleus muscles = test: Mg2+ concentration required to depress nerve-stimulated force by 50% (Kd,Mg2+) in soleus muscles; design: species or system rat; details: combination of C8 and 3,4-diaminopyridine
Protocol: FIGS. 6A-6E. […] Muscles from 4-week-old rats were stimulated to contract by activating the motor nerve with short duration pulses in field stimulation. Muscles contracted every 10 min for 2 s in response to 30 Hz stimulation. Four different experimental conditions were used. […] C) similar to A) but this muscle had been pre-incubated with 3,4-AP. […] The force integral (AUC) was determined at each extracellular Mg^2+ concentration. AUC was plotted against Mg^2+ concentration and the data was fitted to a sigmoidal function. This provided the extracellular Mg^2+ concentration that was required to reduce the nerve-stimulated force to 50% (Mg50) under the four different conditions (see Table 5).
While the use of tubocurarine mimics conditions with reduced neuromuscular transmission due to post-synaptic dysfunction (myasthenia gravis, neuromuscular blockade), the experiments with elevated extracellular Mg^2+ mimics conditions with pre-synaptic dysfunction akin to a range of neuromuscular disorders including Lambert Eaton syndrome, motor neuron disorders and polyneuropathy. […] Based on this it was determined whether recovery of nerve-stimulated force at elevated extracellular Mg^2+ with CIC-1 inhibiting compounds could be added to force recovery with 3,4-AP. […] To quantify the effect of compounds on Mg^2+ sensitivity the force at the different Mg^2+ concentrations was determined. […]

rat soleus muscle = format: cell-based; details: 10 and 25 μM; 1 μM μ-conotoxin GiiiB
isolated human muscles = details: human muscle; 150 μM (FIG. 8A)
[4] = Pharmacokinetic analysis of a single I.P. dose in rats; format: in vivo, Sprague-Dawley rats; details: rat, single I.P. dose 10 mg/kg, plasma
Protocol: This part of the study was performed by Pipeline Biotech A/S (Spørring, Denmark). […] Plasma concentrations (free and bound) were determined by OnTarget Chemistry (Uppsala, Sweden, Project No.: PB243-001).
Before conducting in vivo experiments with animal models of myasthenia gravis, some pharmacokinetic details were obtained for C8 in response to one-bolus I.P. injection.

rats [5] = test: Rotarod running performance of rats after I.P. tubocurarine; format: in vivo, rat; details: 20 mg/kg I.P., 2 hrs before tubocurarine (0.13 mg/kg I.P.); tested 21 min after tubocurarine; sham around 2%
Protocol: FIGS. 9A-9B. […] FIG. 9A illustrates the design of the experiments. Prior to Day One the animals had been familiarized to the rotarod in three training sessions distributed over two days.
(§3) In both series of experiments, running performance was tested on a rotarod using a protocol where the rod was accelerated gradually over a 5 min period, and the running time and covered distance before falling off the rod were measured. […] Experiments with tubocurarine were carried out over two days, and on each day the effect of tubocurarine on running performance was tested. On the first day only tubocurarine was injected. […] On the second day, the animals were first allowed to run on the rotarod, and all animals performed normally. […] The allocation of the animals into the two groups (C8 or sham) was random and unknown to the experimenter (blinded experimental design).
In the first series of in vivo experiments, myasthenia gravis was simply mimicked by I.P. injection of tubocurarine (0.13 mg/kg) in animals that had been familiarized to running on the rotarod. On the first of two consecutive days, tubocurarine was injected I.P. and the running performance of the animal was tested 21 minutes after this injection. On the second day of experimentation, the animals first performed a test run to ensure that they were no longer affected by the tubocurarine injected the day before. […]

rats [6] = test: Rotarod running performance in passive myasthenia gravis induced with MAB35 monoclonal antibody; format: in vivo, rat; details: MAB35 model, compared with sham
Protocol: FIG. 10. […] Prior to I.P. injection of MAB35 the animals had been familiarized to the rotarod over three training sessions distributed over two days. […] After this treatment performance was monitored every second hour. *Indicates significant different as evaluated using student t-test.
as §3
In experiments with MAB35, animals were first familiarized with the rotarod over two consecutive days and then injected I.P. with MAB35. After injection, rotarod performance was then again monitored regularly over the consecutive two days. […] A considerable number of animals, however, became moribund failing to walk and they had altered ventilation (rapid) and pronounced ptosis. These animals were not included in experiments. […]

[7] = 150 μM compound, % change in AUC force compared to AUC after 40 min in tubocurarine, before addition
[8] = % change in AUC force compared to AUC after 40 min in tubocurarine, before addition

SMILES: O=C(O)c1c2ccccc2cc2ccccc12 [Compound 9-AC, reference compound]
- recovery of force and M-wave signal ([1]; 9-AC added after tubocurarine (FIG. 2A)): marked recovery of both force and M-wave signal
- recovery of force and M-wave signal ([2]; 9-AC added at elevated Mg2+ (FIG. 2B)): marked recovery of both force and M-wave signal

SMILES: C[C@H](OCc1ccccc1)C(=O)O [Compound C5, (2S)-2-(benzyloxy)propanoic acid]
- 150 μM % change after addition [1, 7]: 1%
- 500 μM % change after addition [1, 8]: 42%

SMILES: CC(C(=O)O)S(=O)(=O)c1ccc(F)cc1 (stereo not shown) [Compound C6, 2-(4-fluorobenzenesulfonyl)propanoic acid]
- 150 μM % change after addition [1, 7]: −8%
- 500 μM % change after addition [1, 8]: 9%

SMILES: CCC(Oc1ccc(Cl)cc1)C(=O)O (stereo not shown) [Compound C7, 2-(4-chlorophenoxy)butanoic acid]
- 150 μM % change after addition [1, 7]: 0%
- 500 μM % change after addition [1, 8]: 40%

SMILES: C[C@H](Oc1ccc(Br)cc1)C(=O)O [Compound C8, (2S)-2-(4-bromophenoxy)propanoic acid]
- 150 μM % change after addition [1, 7]: 23%
- 50 μM % change after addition ([2]; 50 μM compound, 3.5 mM Mg2+, % change in AUC force vs column 3 (after 70 min at elevated Mg2+)): 13 ± 4%
- 100 μM % change after addition ([2]; 100 μM compound, 3.5 mM Mg2+, % change in AUC force vs column 3 (after 70 min at elevated Mg2+)): 26 ± 5%
- nerve-stimulated contractile force, % of force before rocuronium [3]: 81±4%
- effect of combination on recovery of neuromuscular transmission (soleus muscles): unexpected synergistic effect
- EPP amplitude compared to control conditions (rat soleus muscle): significantly larger EPPs
- contractile force at elevated K+ and TTX (isolated human muscles): markedly recovery
- CI_obs [4]: 48.69 mL/h
- VD_obs [4]: 259.62 mL
- increase in running distance on Day Two compared to Day One (rats [5]): around 150%
- rotarod running performance after injection (rats [6]; 20 mg/kg I.P.): decline was reduced
- rotarod running performance after injection (rats [6]; 30 mg/kg I.P.): clear recovery of performance

SMILES: Cl.NCC(Oc1ccc(F)cc1)C(=O)O (stereo not shown) [Compound C9, 3-amino-2-(4-fluorophenoxy)propanoic acid hydrochloride]
- 150 μM % change after addition [1, 7]: −13%
- 500 μM % change after addition [1, 8]: 5%

SMILES: CC(Oc1ccc(Cl)cc1)C(=O)Oc1ccc(Cl)cc1 (stereo not shown) [Compound C11, 4-chlorophenyl 2-(4-chlorophenoxy)propanoate]
- 150 μM % change after addition [1]: 54%

SMILES: COCC(C)C(Oc1ccc(Br)cc1)C(=O)O (stereo not shown) [Compound C21, 2-(4-bromophenoxy)-4-methoxy-3-methylbutanoic acid]
- 150 μM % change after addition [1, 7]: 7%
- 500 μM % change after addition [1, 8]: 36%
